This note sets out measurements from patent US11613531B2, “Inhibitors of RHO associated coiled-coil containing protein kinase” (Kadmon Corporation, LLC, priority 2017, dated 2023).

Molecules are shown by their SMILES. Where two headings read alike, the source gives them in different places.

Test [1] concerns the target Recombinant ROCK1 (amino acids 1-535) (Homo sapiens (Human), UniProt Q13464). As to the kind of experiment: Z′-Lyte kinase assay, ROCK1. Type of test: biochemical. Conditions: for inhibition at 0.5 µM: 0.5 μM compound; for inhibition at 0.5 µM / inhibition at 3 µM: read-out: ROCK1 % inh. @ [conc]; for inhibition at 3 µM: 3 μM compound. On the procedure: Determination of Compound's ROCK Inhibitory Activity In Vitro (Z'Lyte Assay).
Recombinant ROCK1 (amino acids 1-535) and ROCK2 (amino acids 1-552) proteins were purchased from ThermoFisher Scientific. Compound's activities were measured by Z′-lyte kinase kit (ThermoFisher Scientific) and IC50 was calculated
In vitro activities for the compounds were measured with Z′-lyte kinase kit (ThermoFisher Scientific). The percent inhibition rate was calculated by normalizing the kinase activity value obtained with 1 μM compound treatment against DMSO control value and then applied to the formula, [1-(compound/DMSO)]×100%. IC50s were calculated using the nonlinear regression curve fit function of the GraphPad Prism software with kinase activities data measured with 9 points 2-fold serial dilution of compounds treatment. In cell pMLC IC50s were calculated with data obtained from A7R5 cell experiments. A7R5 cells were treated with 9 points 2-fold serial dilution of compounds and ppMlc (T18/S19) levels were determined to calculate cellular IC50 values of the compounds using the nonlinear regression curve fit function of the GraphPad Prism software. NIH3T3 cells stably expressing ACTA2-promoter-driven-luciferase were applied to measure ROCK compounds functional IC50s in cells. Cells were plated in 96 well plates to confluence and treated with 9 points serial dilution of compounds in combination with TGFβ1 for 24 hr. Luciferase activities were measured and compound's IC50s were calculated using the nonlinear regression curve fit function of the GraphPad Prism software.

Test [2] deals with Recombinant ROCK2 (amino acids 1-552) (Homo sapiens (Human), UniProt O75116). In words: Z′-Lyte kinase assay, ROCK2. Type of test: biochemical. The conditions noted are these: for inhibition at 0.5 µM: 0.5 μM compound; for inhibition at 3 µM: 3 μM compound. The method, boiled down:
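IC50s derive from nonlinear curve fits over a 9-point, 2-fold dilution series, with single-point inhibition at 1 μM expressed relative to DMSO. Activity of truncated human ROCK1 (residues 1-535) and ROCK2 (residues 1-552) measured with the Z′-Lyte kinase format.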

The test system of test [3] is ppMlc (T18/S19) levels in A7R5 cells. In words: A7R5 in-cell ELISA (pMLC). Type of test: cell-based, Rat. Conditions: Rattus norvegicus, A7R5, A7R5 cells; for inhibition at 10 µM: 10 μM compound; for inhibition at 10 µM / inhibition at 1 µM: read-out: pMLC % inh A7R5 @ [conc]; for inhibition at 1 µM: 1 μM compound. Put shortly: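 Cellular IC50 came from a nonlinear regression fit of ppMlc (T18/S19) signal, read by colorimetric in-cell ELISA on fixed cells. Rat A7R5 aortic smooth muscle cells had been exposed for 90 min to compounds in 9-point 2-fold serial dilution, 24 h after seeding.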

[4] abbreviates: 9 points 2-fold serial dilution.
The mark [5] stands for this setting: read-out: ROCK2 % inh. @ [conc].

Recombinant ROCK1 (amino acids 1-535), sequence (Q13464 1-535): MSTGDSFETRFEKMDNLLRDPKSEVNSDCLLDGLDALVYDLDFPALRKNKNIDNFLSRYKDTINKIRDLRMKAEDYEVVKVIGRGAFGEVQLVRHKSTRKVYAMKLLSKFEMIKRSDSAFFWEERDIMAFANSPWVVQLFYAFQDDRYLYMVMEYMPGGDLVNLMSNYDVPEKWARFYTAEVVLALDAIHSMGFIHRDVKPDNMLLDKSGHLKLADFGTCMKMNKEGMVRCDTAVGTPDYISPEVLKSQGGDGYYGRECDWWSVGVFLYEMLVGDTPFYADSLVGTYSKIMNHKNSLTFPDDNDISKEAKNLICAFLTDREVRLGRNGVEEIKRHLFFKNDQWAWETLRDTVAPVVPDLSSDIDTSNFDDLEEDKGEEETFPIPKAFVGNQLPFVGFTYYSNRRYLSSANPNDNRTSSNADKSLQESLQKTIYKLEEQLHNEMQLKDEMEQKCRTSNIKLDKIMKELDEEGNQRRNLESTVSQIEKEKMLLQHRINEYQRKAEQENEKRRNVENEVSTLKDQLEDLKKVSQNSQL
Recombinant ROCK2 (amino acids 1-552), sequence (O75116 1-552): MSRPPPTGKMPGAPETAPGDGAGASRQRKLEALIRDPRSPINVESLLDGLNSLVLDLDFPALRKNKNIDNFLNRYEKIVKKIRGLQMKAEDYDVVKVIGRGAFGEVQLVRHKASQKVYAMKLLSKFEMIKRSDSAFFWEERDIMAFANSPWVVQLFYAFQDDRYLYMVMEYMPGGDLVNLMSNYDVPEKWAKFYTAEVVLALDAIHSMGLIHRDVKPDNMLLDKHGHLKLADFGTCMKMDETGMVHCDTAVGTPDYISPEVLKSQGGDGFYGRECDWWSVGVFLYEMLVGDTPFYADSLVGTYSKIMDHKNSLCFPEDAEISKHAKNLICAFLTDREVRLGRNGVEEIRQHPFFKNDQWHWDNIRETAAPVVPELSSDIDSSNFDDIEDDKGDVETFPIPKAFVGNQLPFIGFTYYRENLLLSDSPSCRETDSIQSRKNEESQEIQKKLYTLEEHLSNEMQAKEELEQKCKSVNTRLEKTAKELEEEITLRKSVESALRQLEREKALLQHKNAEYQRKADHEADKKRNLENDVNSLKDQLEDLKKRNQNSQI

Usually IC50 stands for the concentration at which inhibition is half-maximal. Consider `COc1cnc(N2CCCNCC2)nc1Nc1ccc2[nH]ncc2c1` [Example 7, N-(2-(1,4-diazepan-1-yl)-5-methoxypyrimidin-4-yl)-1H-indazol-5-amine], for which the IC50 was 0.065 µM in test [1] (setting [4]), 0.107 µM in test [2] (setting [4]) and 460 nM in test [3] (ppMlc (T18/S19)). In test [2] (1 μM compound, read-out: ROCK2 % inh. @ [conc]), the inhibition at 1 µM turned out to be 96%. Further, in test [3], the inhibition at 10 µM is 98.3%.

Consider `c1cc2nc(N3CCCNCC3)nc(Nc3ccc4[nH]ncc4c3)c2s1` [Example 10, 2-(1,4-diazepan-1-yl)-N-(1H-indazol-5-yl)thieno[3,2-d]pyrimidin-4-amine], for which the inhibition at 0.5 µM in test [1] came out at 94%; in test [2] (setting [5]) it was 98%. In addition, the IC50 is 0.02 µM in test [2] (setting [4]) and 565 nM in test [3] (ppMlc (T18/S19)). For the same compound, in test [3], the inhibition at 10 µM stood at 90%.

For `c1cc2[nH]ncc2cc1Nc1nc(N2CCCNCC2)nc2c1COC2` [Example 11, 2-(1,4-diazepan-1-yl)-N-(1H-indazol-5-yl)-5,7-dihydrofuro[3,4-d]pyrimidin-4-amine], the inhibition at 0.5 µM in test [1] is 76%; in test [2] (setting [5]), 93%. Besides, the IC50 stood at 0.031 µM in test [2] (setting [4]) and 1120 nM in test [3] (ppMlc (T18/S19)). Also, in test [3], the inhibition at 10 µM was found to be 89%.

Consider `c1ccc(C2CN(c3nccc(Nc4ccc(-c5ccncc5)cc4)n3)CCCN2)cc1` (stereo not shown) [Example 18, 2-(3-phenyl-1,4-diazepan-1-yl)-N-(4-(pyridin-4-yl)phenyl)pyrimidin-4-amine], for which the IC50 was 0.332 µM in test [1] (setting [4]) and 0.206 µM in test [2] (setting [4]). The inhibition at 10 µM in test [3] stood at 11%.

Consider `c1cc(Nc2ccc3[nH]ncc3c2)nc(N2CCNCC2)n1` [Example 34, N-(2-(piperazin-1-yl)pyrimidin-4-yl)-1H-indazol-5-amine], for which the figures for the IC50 in test [1], in test [2] and in test [3] were 0.031 µM, 0.029 µM and 393 nM, respectively. The inhibition at 3 µM in test [1] stood at 102%; in test [2] (setting [5]) it was 101%. The inhibition at 10 µM in test [3] was determined as 62.4%.

Take `c1cc(Nc2ccc3[nH]ncc3c2)nc(N2CCCNCC2)n1` [Example 35, N-(2-(1,4-diazepan-1-yl)pyrimidin-4-yl)-1H-indazol-5-amine]: the IC50 in test [1] was 0.016 µM; in test [2], 0.015 µM; in test [3] it was 416 nM. For the same compound, the inhibition at 3 µM in test [1] is 100%; in test [2] (setting [5]) it was 98.9%. Also, in test [3], the inhibition at 10 µM came to 68.1%.

In the case of `c1cc2[nH]ncc2cc1Nc1nc(N2CC3CCC(C2)N3)nc2c1COC2` [Example 39, 2-(3,8-diazabicyclo[3.2.1]octan-3-yl)-N-(1H-indazol-5-yl)-5,7-dihydrofuro[3,4-d]pyrimidin-4-amine], the inhibition at 0.5 µM is 67% in test [1] and 64% in test [2] (setting [5]). The inhibition at 1 µM in test [3] was determined as 6.6%.

In the case of `CC1CN(c2nccc(Nc3ccc(-c4ccncc4)cc3)n2)CCCN1` (stereo not shown) [Example 43, 2-(3-methyl-1,4-diazepan-1-yl)-N-(4-(pyridin-4-yl)phenyl)pyrimidin-4-amine], the results for the inhibition at 3 µM in test [1] and in test [2] (setting [5]) were 99% and 98.8%, respectively. The IC50 in test [1] (setting [4]) is 0.135 µM; in test [2] (setting [4]), 0.12 µM; in test [3] (ppMlc (T18/S19)), 730 nM.

With `CC1CCN(c2nccc(Nc3ccc(-c4ccncc4)cc3)n2)CCN1` (stereo not shown) [Example 45, 2-(5-methyl-1,4-diazepan-1-yl)-N-(4-(pyridin-4-yl)phenyl)pyrimidin-4-amine], the inhibition at 3 µM is 99% in test [1] and 98.8% in test [2] (setting [5]). Besides, the IC50 in test [1] (setting [4]) was 0.307 µM; in test [2] (setting [4]), 0.649 µM; in test [3] (ppMlc (T18/S19)), 2120 nM.

With `CC1CCN(c2nccc(Nc3ccc4[nH]ncc4c3)n2)CCN1` (stereo not shown) [Example 57, N-(2-(5-methyl-1,4-diazepan-1-yl)pyrimidin-4-yl)-1H-indazol-5-amine], the inhibition at 3 µM amounted to 17.4% in test [1] and 93.4% in test [2] (setting [5]). Further, the inhibition at 10 µM in test [3] turned out to be 60.6%. Besides, in test [3] (ppMlc (T18/S19)), the IC50 was 1220 nM.

`CCC1CN(c2nccc(Nc3ccc4[nH]ncc4c3)n2)CCN1` (stereo not shown) [Example 58, N-(2-(3-ethylpiperazin-1-yl)pyrimidin-4-yl)-1H-indazol-5-amine]: the figures for the inhibition at 3 µM in test [1] and in test [2] (setting [5]) were 99% and 98.8%, respectively. The concentration for half-maximal inhibition (IC50) in test [1] (setting [4]) is 0.192 µM; in test [2] (setting [4]), 0.144 µM; in test [3] (ppMlc (T18/S19)) it was 1080 nM.

With `CC(C)C1CN(c2nccc(Nc3ccc4[nH]ncc4c3)n2)CCN1` (stereo not shown) [Example 59, N-(2-(3-isopropylpiperazin-1-yl)pyrimidin-4-yl)-1H-indazol-5-amine], the inhibition at 3 µM in test [1] and in test [2] (setting [5]) was 100% throughout. The IC50 is 0.671 µM in test [1] (setting [4]), 0.902 µM in test [2] (setting [4]) and 4780 nM in test [3] (ppMlc (T18/S19)).

On to `CCC1CCN(c2nccc(Nc3ccc4[nH]ncc4c3)n2)CCN1` (stereo not shown) [Example 60, N-(2-(5-ethyl-1,4-diazepan-1-yl)pyrimidin-4-yl)-1H-indazol-5-amine], for which the inhibition at 3 µM in test [1] and in test [2] (setting [5]) was 100% each time. Also, the IC50 came out at 0.66 µM in test [1] (setting [4]), 0.45 µM in test [2] (setting [4]) and 3440 nM in test [3] (ppMlc (T18/S19)).

Regarding `CC(C)C1CCN(c2nccc(Nc3ccc4[nH]ncc4c3)n2)CCN1` (stereo not shown) [Example 61, N-(2-(5-isopropyl-1,4-diazepan-1-yl)pyrimidin-4-yl)-1H-indazol-5-amine], the inhibition at 3 µM in test [1] and in test [2] (setting [5]) was 100% throughout. The half-maximal inhibitory concentration (IC50) in test [1] (setting [4]) was > 1 µM; in test [2] (setting [4]), > 1 µM; in test [3] (ppMlc (T18/S19)) it was 8170 nM.

Consider `CCC1CN(c2nccc(Nc3ccc4[nH]ncc4c3)n2)CCCN1` (stereo not shown) [Example 62, N-(2-(3-ethyl-1,4-diazepan-1-yl)pyrimidin-4-yl)-1H-indazol-5-amine], for which the inhibition at 3 µM in test [1] and in test [2] (setting [5]) was 100% throughout. Moreover, the IC50 in test [1] (setting [4]) was determined as 0.179 µM; in test [2] (setting [4]), 0.177 µM; in test [3] (ppMlc (T18/S19)) it was 1300 nM.

As for `c1ccc(C2CCN(c3nccc(Nc4ccc5[nH]ncc5c4)n3)CCN2)cc1` (stereo not shown) [Example 63, N-(2-(5-phenyl-1,4-diazepan-1-yl)pyrimidin-4-yl)-1H-indazol-5-amine], the inhibition at 3 µM in test [1] and in test [2] (setting [5]) was 100% each time. Moreover, the IC50 in test [1] (setting [4]) is > 1 µM; in test [2] (setting [4]) it was > 1 µM; in test [3] (ppMlc (T18/S19)), 25100 nM.

As for `c1ccc(C2CN(c3nccc(Nc4ccc5[nH]ncc5c4)n3)CCCN2)cc1` (stereo not shown) [Example 64, N-(2-(3-phenyl-1,4-diazepan-1-yl)pyrimidin-4-yl)-1H-indazol-5-amine], the IC50 in test [1] (setting [4]) came out at 0.325 µM; in test [2] (setting [4]) it was 0.24 µM; in test [3] (ppMlc (T18/S19)) it was 1040 nM. Also, the inhibition at 10 µM in test [3] worked out at 63.9%.

Consider `CC(C)C1CN(c2nccc(Nc3ccc4[nH]ncc4c3)n2)CCCN1` (stereo not shown) [Example 65, N-(2-(3-isopropyl-1,4-diazepan-1-yl)pyrimidin-4-yl)-1H-indazol-5-amine], for which the figures for the IC50 in test [1] (setting [4]), in test [2] (setting [4]) and in test [3] (ppMlc (T18/S19)) were 0.098 µM, 0.353 µM and 1980 nM, respectively. Moreover, in test [3], the inhibition at 10 µM is 47.8%.

Take `CCCC1CNCCN1c1nccc(Nc2ccc3[nH]ncc3c2)n1` (stereo not shown) [Example 69, N-(2-(2-propylpiperazin-1-yl)pyrimidin-4-yl)-1H-indazol-5-amine]: the inhibition at 0.5 µM in test [1] was determined as 67%; in test [2] (setting [5]), 52%. Further, the inhibition at 1 µM in test [3] came to 19.3%.

As for `Clc1cnc(N2CCNCC2)nc1Nc1ccc2[nH]ncc2c1` [Example 178, N-(5-chloro-2-(piperazin-1-yl)pyrimidin-4-yl)-1H-indazol-5-amine], the IC50 stood at 0.388 µM in test [1] (setting [4]), 0.159 µM in test [2] (setting [4]) and 706 nM in test [3] (ppMlc (T18/S19)). Moreover, the inhibition at 10 µM in test [3] was found to be 47.5%.

For the compound `CCC1CNCCN1c1ncc(Cl)c(Nc2ccc3[nH]ncc3c2)n1` (stereo not shown) [Example 187, N-(5-chloro-2-(2-ethylpiperazin-1-yl)pyrimidin-4-yl)-1H-indazol-5-amine], the IC50 worked out at 0.058 µM in test [1] (setting [4]), 0.111 µM in test [2] (setting [4]) and 665 nM in test [3] (ppMlc (T18/S19)). In addition, in test [3], the inhibition at 10 µM was 59.8%.

Turning to `CC1CN(c2ncc(Cl)c(Nc3ccc4[nH]ncc4c3)n2)CC(C)N1` (stereo not shown) [Example 189, N-(5-chloro-2-(3,5-dimethylpiperazin-1-yl)pyrimidin-4-yl)-1H-indazol-5-amine], the inhibition at 0.5 µM in test [1] was determined as 18%; in test [2] (setting [5]), 14%. Further, the inhibition at 10 µM in test [3] stood at 33.4%. The IC50 in test [3] (ppMlc (T18/S19)) is 637 nM.
